Experiments:
[1] = Water adsorption properties by dynamic vapour sorption (DVS); assay type: physicochemical
Procedure: From the examination of water adsorption properties important conclusions can be made about the physical and chemical stability of a compound. Amorphous compounds can adsorb more water from the air. This property is deliberately disadvantageous during the preparation process of a pharmaceutical composition, since the real amount of the active ingredient can't be measured because of the adsorbed water.
Water adsorption properties of the compounds were measured by dynamic vapour sorption technique (DVS). […]

[2] = Fast Stability Test (solid stored on a plate at 40° C. in air, impurity by HPLC); assay type: physicochemical; conditions: for N-demethyl-derivative of CDB-4124: largest degradation product; for N-demethyl-derivative of CDB-4124 / Impurity: HPLC; for Impurity: stored on a plate at 40° C. in the presence of air
Procedure: Amorphous and crystalline forms were stored on a plate at 40° C. in the presence of air for 10 days. Impurity was measured at different times using HPLC equipment. […]

Row | SMILES | water adsorbed (max.) ([1]; DVS, 25° C., 0%-90% relative humidity, as humidity was increased) [m/m %] | mass change as the degree of humidity was increased ([1]; DVS, 25° C., 0%-90% relative humidity) | physical stability on change in relative humidity ([1]; room-temperature, independently of a change in relative humidity) | stability (purity examination) ([2]; 40° C., air, 10 days, compared with amorphous form) | N-demethyl-derivative of CDB-4124 ([2]; Day 0, 40° C., air) [%] | Impurity ([2]; Day 0) [%] | N-demethyl-derivative of CDB-4124 ([2]; Day 1, 40° C., air) [%] | Impurity ([2]; Day 1) [%] | N-demethyl-derivative of CDB-4124 ([2]; Day 2, 40° C., air) [%] | Impurity ([2]; Day 2) [%] | Impurity ([2]; Day 6) [%] | N-demethyl-derivative of CDB-4124 ([2]; Day 10, 40° C., air) [%] | Impurity ([2]; Day 10) [%]
1 | COCC(=O)[C@@]1(OC(C)=O)CC[C@H]2[C@@H]3CCC4=CC(=O)CCC4=C3[C@@H](c3ccc(N(C)C)cc3)C[C@@]21C [Amorphous form, 17α-acetoxy-21-methoxy-11β-[4-N,N-dimethylaminophenyl]-19-norpregna-4,9-diene-3,20-dione, reference compound] | 2 |  |  |  |  |  |  |  |  |  |  |  | 
2 | COCC(=O)[C@@]1(OC(C)=O)CC[C@H]2[C@@H]3CCC4=CC(=O)CCC4=C3[C@@H](c3ccc(N(C)C)cc3)C[C@@]21C [Form A, 17α-acetoxy-21-methoxy-11β-[4-N,N-dimethylaminophenyl]-19-norpregna-4,9-diene-3,20-dione] |  | barely changed | stable anhydrate | much better than that of the amorphous form | 0.18 | 0.33 | 0.18 | 0.33 | 0.18 | 0.35 | 0.43 | 0.23 | 0.48

— US8513228B2, “Crystalline form of antiprogestin CDB-4124” (Richter Gedeon Nyrt., priority 2009, dated 2013)
